Target: LDHC (Homo sapiens, UniProt P07864)
Test: Coupled diaphorase assay (LDHC inhibition)
Assay type: biochemical
Conditions: 10 nM LDHC, 500 μM lactate, 150 μM NAD+, 3 μM resazurin, fluorescence readout of resorufin
Excerpt: The inhibitory properties of the compounds were investigated using a coupled enzyme assay that links the lactate dehydrogenase (LDH) reaction to the production of fluorescent resorufin by diaphorase.
Human lactate dehydrogenases (LDH) catalyze the reversible interconversion between pyruvate and lactate. LDH is capable of catalyzing both the forward (pyruvate to lactate) and the reverse (lactate to pyruvate) reaction, using either NADH or NAD+ as cofactor. The reaction proceeds in either direction dependent on various factors, such as substrate availability, the presence of necessary cofactors, temperature and pH.
The coupled assay relies on the […] of NAD+ to NADH throughout the conversion of lactate to pyruvate by LDHC. The produced NADH serves as cofactor in the diaphorase reaction, which reduces non-fluorescent resazurin to fluorescent resorufin. Therefore, the assay indirectly monitors the rate of pyruvate production. Although the consumption or formation of NADH can be directly monitored due to the intrinsic fluorescence of the molecule (excitation: 340 nm, emission: 460 nm) there are problems linked to the direct readout method. It has been shown that many compounds in chemical libraries interfere with the assay due to fluorescent properties similar to NADH. Shifting the assay to longer wavelengths by coupling the LDH reaction to the conversion of resazurin to fluorescent resorufin by diaphorase reduces this compound interference. The assay direction was thus chosen to provide a robust and reliable assay.
For the determination of IC50 values a coupled diaphorase assay was adopted from Bembenek et al. (A Fluorescence-Based Coupling Reaction for Monitoring the Activity of Recombinant Human NAD Synthetase. ASSAY and Drug Development Technologies, 2005. 3(5): 533-541). Compounds were tested in duplicates using 2-fold, 3-fold or 4-fold serial dilutions including 11 individual concentrations, starting from 5000 μM to 30 μM depending on their activity in initial tests. Positive (without compound in the presence of DMSO) and inhibition controls (oxamate, 28.7 mM final concentration in assay) or no-substrate controls representing 100% inhibition were added. Oxamate is a well characterized inhibitor of LDH that inhibits LDH enzyme activity in the mM range in vitro with high specificity (Papacostantinou et al., J. Biol. Chem. 236: 278-284, 1961). The controls allowed for the calculation of the percentage inhibition for each data point. The assay buffer consisted of 50 mM HEPES pH 7.4, 5 mM MgCl2 and 0.05% pluronic acid F-127. Enzyme solution with final concentrations of 10 nM LDHC, as well as 0.2 U/ml diaphorase was dispensed into 384-well plates (Greiner bio-one) using a CyBi®-SELMA robotic pipettor. Compound dilutions and the enzyme were incubated for at least 15 to 20 min at room temperature. Thereafter, the substrate solution was added (final concentrations: 500 μM lactate, 150 μM NAD^+, 3 μM resazurin). The reaction was quenched by the addition of a stop solution (final concentrations: 20 mM EDTA, 400 mM NaCl, 40 mM pyruvate). Fluorescence was read out after 5 min of incubation at an excitation wavelength of 560 nm and an emission wavelength of 590 nm on a BMG labtech FLUOstar OPTIMA or a Perkin Elmer Victor X plate reader. […]

Sequence of LDHC (P07864 whole entry): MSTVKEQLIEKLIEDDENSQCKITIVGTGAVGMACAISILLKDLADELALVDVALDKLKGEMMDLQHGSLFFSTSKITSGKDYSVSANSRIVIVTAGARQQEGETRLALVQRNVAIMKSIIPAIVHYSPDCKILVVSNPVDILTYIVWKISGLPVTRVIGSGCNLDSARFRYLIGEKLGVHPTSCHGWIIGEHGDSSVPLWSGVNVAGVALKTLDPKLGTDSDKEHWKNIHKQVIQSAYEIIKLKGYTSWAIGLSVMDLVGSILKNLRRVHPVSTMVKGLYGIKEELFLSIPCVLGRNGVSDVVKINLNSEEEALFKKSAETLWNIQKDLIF

Row | SMILES | IC50
1 | O=C1CC(c2ccc(N3CCOCC3)cc2)(c2ccsc2)NC(=O)C1Sc1cc(Cl)ccc1Cl (racemic) [Example 6, 3-((2,5-dichlorophenyl)thio)-6-(4-morpholinophenyl)-6-(thiophen-3-yl)piperidine-2,4-dione] | 0.5 to 10 µM
2 | O=C1CC(c2ccsc2)(c2cccc(Cc3cccc(F)c3)n2)NC(=O)C1Sc1ccccc1Cl (stereo not shown) [Example 11, 3-((2-chlorophenyl)thio)-6-(6-(3-fluorobenzyl)pyridin-2-yl)-6-(thiophen-3-yl)piperidine-2,4-dione] | 0.5 to 10 µM
3 | O=C1CC(c2ccc(N3CCOCC3)cc2)(c2ccsc2)NC(=O)C1Sc1cc(Cl)ccc1Cl (single isomer, unassigned) [6 Enantiomer 1] | 10 to 50 µM
4 | O=C1CC(c2ccc(N3CCOCC3)cc2)(c2ccsc2)NC(=O)C1Sc1cc(Cl)ccc1Cl (single isomer, unassigned) [6 Enantiomer 2] | 50 to 100 µM
5 | O=C1CC(c2ccc(N3CCOCC3)cc2)(c2ccsc2)NC(=O)C1Sc1ccccc1Cl (racemic) [Example 7, 3-((2-chlorophenyl)thio)-6-(4-morpholinophenyl)-6-(thiophen-3-yl)piperidine-2,4-dione] | 0.5 to 10 µM
6 | O=C1CC(c2ccsc2)(c2cccc(OCC3CCCC3)n2)NC(=O)C1Sc1ccc(F)cc1Cl (stereo not shown) [Example 2, 3-[(2-chloro-4-fluorophenyl)sulfanyl]-6-[6-(cyclopentylmethoxy)pyridin-2-yl]-6-(thiophen-3-yl)piperidine-2,4-dione] | 0.5 to 10 µM
7 | O=C1CC(c2ccsc2)(c2cccc(OC3COC3)n2)NC(=O)C1Sc1ccccc1Cl (stereo not shown) [Example 10, 3-((2-chlorophenyl)thio)-6-(6-(oxetan-3-yloxy)pyridin-2-yl)-6-(thiophen-3-yl)piperidine-2,4-dione] | 10 to 50 µM
8 | O=C1CC(c2ccc(N3CCOCC3)cc2)(c2ccsc2)NC(=O)C1Sc1ccccc1Cl (single isomer, unassigned) [7 Enantiomer 2] | 10 to 50 µM
9 | O=C1CC(c2ccc(N3CCOCC3)cc2)(c2ccsc2)NC(=O)C1Sc1ccccc1Cl (single isomer, unassigned) [7 Enantiomer 1] | 0.5 to 10 µM
10 | O=C1NC(c2ccc(N3CCOCC3)cc2)(c2ccsc2)CC(OC(=O)c2ccncc2)=C1Sc1cc(Cl)ccc1Cl (stereo not shown) [Example 9, 5-((2,5-dichlorophenyl)thio)-2-(4-morpholinophenyl)-6-oxo-2-(thiophen-3-yl)-1,2,3,6-tetrahydropyridin-4-yl isonicotinate] | 0.5 to 10 µM
11 | O=C1CC(c2ccsc2)(c2cccc(OCC3CCCC3)n2)NC(=O)C1Sc1cc(Cl)ccc1Cl (stereo not shown) [Example 3, 6-[6-(cyclopentylmethoxy)pyridin-2-yl]-3-[(2,5-dichlorophenyl)sulfanyl]-6-(thiophen-3-yl)piperidine-2,4-dione] | 0.5 to 10 µM
12 | O=C1CC(c2ccc(N3CCOCC3)cc2)(c2ccsc2)NC(=O)C1Sc1ccc(F)cc1Cl (stereo not shown) [Example 5, 3-((2-chloro-4-fluorophenyl)thio)-6-(4-morpholinophenyl)-6-(thiophen-3-yl)piperidine-2,4-dione] | 0.5 to 10 µM
13 | O=C1CC(c2ccsc2)(c2cccc(OCC3CCCC3)n2)NC(=O)C1Sc1ccc(Cl)cc1Cl (stereo not shown) [Example 1, 6-[6-(cyclopentylmethoxy)pyridin-2-yl]-3-[(2,4-dichlorophenyl)sulfanyl]-6-(thiophen-3-yl)piperidine-2,4-dione] | 50 to 100 µM
14 | O=C1CC(c2ccsc2)(c2cccc(OCC3CCCC3)n2)NC(=O)C1Sc1ccccc1Cl (stereo not shown) [Example 8, 3-((2-chlorophenyl)thio)-6-(6-(cyclopentylmethoxy)pyridin-2-yl)-6-(thiophen-3-yl)piperidine-2,4-dione] | 0.5 to 10 µM
15 | O=C1CC(c2ccsc2)(c2cccc(OCC3CCCC3)n2)NC(=O)C1Sc1cccc(Cl)c1Cl (stereo not shown) [Example 4, 6-[6-(cyclopentylmethoxy)pyridin-2-yl]-3-[(2,3-dichlorophenyl)sulfanyl]-6-(thiophen-3-yl)piperidine-2,4-dione] | 50 to 100 µM
16 | CC(C)CCOc1cccc(C2(c3ccsc3)CC(=O)C(Sc3ccccc3Cl)C(=O)N2)n1 (stereo not shown) [Example 12, 3-((2-chlorophenyl)thio)-6-(6-(isopentyloxy)pyridin-2-yl)-6-(thiophen-3-yl)piperidine-2,4-dione] | 0.5 to 10 µM

Source: patent US20200163950A1, “PIPERIDINE-DIONE DERIVATIVES FOR USE AS CONTRACEPTIVES” (SPERMATECH AS, priority 2017, published 2020)
